Data as given in patent US20250051264A1, “CANNABIDIOL DERIVATIVE, PREPARATION METHOD THEREFOR AND APPLICATION THEREOF” (DEYI PHARMACEUTICAL LTD., priority 2021, published 2025).

Legend:
Assay type in all cases: in vivo, C57/BL6 mice
[1] = test system: model of Parkinson's disease; assay: Behavioral balance beam score in the MPTP mouse model of Parkinson's disease; settings: for balance beam score after treatment: after 14 days intragastric treatment, model group 4-5 points; for Behavioral balance beam score, After treatment: after intragastric administration once a day for 14 days (compound 3 100 mg/kg; amantadine 40 mg/kg), model group 4.50 ± 0.53; for Behavioral balance beam score, After treatment / Behavioral balance beam score, After modeling: scale 0-5; for balance beam score as compared to the model group: after treatment, P≤0.05; for Behavioral balance beam score, After modeling: baseline 7 days after MPTP 25 mg/kg i.p. once daily, before treatment, mean ± SD, 8 mice per group
Method: C57/BL6 mice, SPF grade, weighing 18-20 g, aged 6-8 weeks, male, purchased from Shanghai Slac Laboratory Animal Co., Ltd. Feeding environment: the temperature was kept at 22±1° C., and the humidity was kept at 65%-70%, in a 12/12 hour light/dark illumination cycle, with free access to water.
(1) 32 SPF-grade C57 mice aged 6-8 weeks were purchased and acclimatized for one week, and subsequently the modeling was started.
(§1) (2) MPTP (25 mg/kg) was intraperitoneally injected once a day for 7 consecutive days. The blank group was left untreated.
(§2) (3) After modeling, administration was started. […] The intragastric administration was performed once a day for 14 consecutive days.
(4) Behavioral test was first performed by balance beam test scoring.
A beam of 80 cm long and 2.5 cm wide was horizontally fixed at a height of 10 cm from the table top, and subsequently, the animals were allowed to walk on the beam.
The scoring scale was as follows: being able to jump on the balance beam and to walk freely without falling down: 0 points; being able to jump on the balance beam, but having a probability of tumbling down of less than 50% when walking on the balance beam: 1 point; being able to jump on the balance beam, but having a probability of tumbling down of greater than 50% when walking on the balance beam: 2 points; being able to jump on the balancing beam with the help of the normal side of the body, but failing to get help from the hind limb on the paralyzed side to move forward: 3 points; being unable to walk on the balance beam, but being able to sit on the beam: 4 points; falling off quickly when being placed on the beam: 5 points.

[2] = test system: tyrosine hydroxylase (TH) cells in substantia nigra (SubN); assay: Tyrosine hydroxylase (TH) cells in substantia nigra (SubN) by immunohistochemistry in the MPTP mouse model of Parkinson's disease; settings: for positive rate of TH cells in substantia nigra as compared to the model group: after treatment; for TH cell positive rate: substantia nigra, after 14 days intragastric treatment (compound 3 100 mg/kg; amantadine 40 mg/kg), blank 34.27 ± 5.08, model 12.74 ± 1.71
Method: as §1, §2
The tissue should be cut using sharp knives and scissors. When cutting a tissue mass, the tissue was cut by pulling backwards from the root of the knife. […] The prepared tissue mass was fixed in 10% formalin for 48 h.
The fixed tissue was washed with running water to remove residual fixing liquid and impurities. The tissue mass was dehydrated in stages with different concentrations of ethanol (50%, 70%, 85%, 95%, up to pure alcohol (absolute ethanol)), each stage for 2 h. Dehydration must be performed in a capped flask to prevent high concentrations of ethanol from absorbing moisture in the air, resulting in reduced concentrations and incomplete dehydration. The material to be preserved can remain in 70% ethanol when being dehydrated with it. For long-term preservation, an equivalent amount of glycerol can be added.
The tissue mass was placed into a mixed solution of pure ethanol and xylene in an equivalent volume and left to stand for 2 h, subsequently placed into pure xylene and left to stand for two hours, and placed into pure xylene and left to stand for another two hours. After transparentizing, the effect of the previous dehydration of the material can be shown. If the dehydration is complete, the tissue is in a transparent state, and if there is a white cloud-shaped substance in the tissue, it means that the dehydration is incomplete and must be reworked, but the effect of rework is often not good. When xylene is used for transparentizing, it should be prevented from volatilizing and absorbing moisture in the air, and it should be kept in an anhydrous state.
The paraffin immersion must be performed in a thermostat. The tissue mass material was first immersed in a mixed solution of molten paraffin and xylene in equal volume for 1-2 h and subsequently immersed in 2 parts of molten paraffin solutions for 3 h each.
Embedding is the encapsulation of the paraffin-impregnated tissue mass with paraffin. Specifically, a paper box was first prepared, molten paraffin was added to the box, a tissue mass was quickly clamped by using a pair of pre-heated tweezers, and placed flat at the bottom of the paper box with a cut surface facing downwards. Subsequently, the paper box was slightly lifted up and placed flat in cold water, immediately pressed into the water after the paraffin on the surface was solidified for quickly cooling and solidifying the paraffin, and taken out after 30 min.
The paraffin block was placed in a refrigerator at −20° C. for at least 30 min before slicing to increase hardness. […]

dopamine in striatum = assay: Content of dopamine in brain striatum by the kit method (ELISA) in the MPTP mouse model of Parkinson's disease
Method: as §1, §2
After the mice were sacrificed quickly, the brains of the mice were taken and the cerebral palliums (CPs) of the mice were isolated. After exposing the brain striatum of the mice, the striatum was weighed and homogenized after adding PBS according to a proportion. The supernatant was isolated and detected for the content of dopamine in the brain striatum.
(1) Standard curve plotting: a microplate was taken, and reagents were added according to the table below.
(2) According to the number of samples, a proper amount of BCA working solution was prepared by uniformly mixing BCA reagent A and reagent B according to a volume ratio of 50:1.
(3) 160 μL of BCA working solution was added to each well.
(4) The microplate was shaken on a shaker for 30 s, left to stand at 37° C. for 30 min, and subsequently measured for absorbance at 562 nm. A standard curve was plotted with the absorbance value as an abscissa and the protein concentration (μg/μL) as an ordinate.
(5) 2 μL of test protein and 18 μL of PBS (10-fold dilution) were added to the microplate, 160 μL of BCA working solution was added, and the microplate was shaken on a shaker for 30 s, left to stand at 37° C. for 30 min, and subsequently measured for the absorbance at 562 nm.
(7) The experimental procedures and methods for the determination of dopamine in mice were referred to the kit instructions.

SMILES: NC12CC3CC(CC(C3)C1)C2 [Positive drug, amantadine, reference compound]
- balance beam score after treatment [1]: 2-3 points
- Behavioral balance beam score, After treatment [1]: 2.13 ± 0.83
- balance beam score as compared to the model group [1]: significant descending trend
- Behavioral balance beam score, After modeling [1]: 4.75 ± 0.46
- positive rate of TH cells in substantia nigra as compared to the model group [2]: significant increase
- TH cell positive rate [2]: 20.82 ± 5.77 %

SMILES: C=C(C)[C@@H]1CCC(C)=C[C@H]1c1c(OC(=O)[C@@H](N)CCCCN)cc(CCCCC)cc1OC(=O)[C@@H](N)CCCCN [compound 3]
- balance beam score after treatment [1]: 3-4 points
- Behavioral balance beam score, After treatment [1]: 3.50 ± 1.07
- balance beam score as compared to the model group [1]: significant descending trend
- Behavioral balance beam score, After modeling [1]: 4.38 ± 0.52
- DA content of dopamine in striatum after treatment (dopamine in striatum; after 14 days intragastric treatment (compound 3 100 mg/kg; amantadine 40 mg/kg), blank 0.71 ± 0.16, model 0.30 ± 0.07): 0.45 ± 0.10 ng/mg
- dopamine content as compared to the model group (dopamine in striatum; after treatment, P≤0.01): increase
- content of dopamine compared with the blank group (dopamine in striatum; after treatment, P≤0.05): significant decrease
- positive rate of TH cells in substantia nigra as compared to the model group [2]: increase
- TH cell positive rate [2]: 14.59 ± 2.60%
